The experiment has as its system Helraiser transposase, wild type (WT), SEQ ID NO: 1, consensus Helibat1 Helitron transposase from the bat Myotis lucifugus. Description: Colorimetric ATPase assay (ATP hydrolysis, malachite green). It counts as biochemical. The following applies: purified transposase; 50 mM HEPES pH 7.5, 100 mM NaCl, 1 mM DTT, 2 mM MgCl2, 37° C; ATP 0.0078 to 1 mM. How it is done:
Protein Expression and Purification
Point mutations were made using the QuikChange site-directed mutagenesis method (Agilent). Baculovirus production and protein expression were performed by the Protein Expression Laboratory at the National Cancer Institute as follows:
Cell pellets were resuspended in Nickel affinity column binding buffer (20 mM NaH2PO4 pH 7.4, 500 mM NaCl, 50 mM imidazole, 1 mM TCEP). All subsequent steps were performed at 4° C. Lysis was done by incubating the cells on ice for 30 minutes, then sonication with a Misonix Sonicator 3000 (5×20-sec pulses with 3 minute pause at 82 Watts). […]
ATP hydrolysis was analyzed by measuring the formation of free phosphate (Pi) as a function of time using procedures adapted from Baykov et al. (Baykov A A, Evtushenko O A, Avaeva S M. A malachite green procedure for orthophosphate determination and its use in alkaline phosphatase-based enzyme immunoassay. Anal Biochem 171, 266-270 (1988)). […] An aliquot (150 μl) of a 1 mM malachite green stock solution was added to each well, and the absorbance at 650 nm was measured using a Molecular Devices Spectramax M5 microplate reader. The amount of phosphate released was calculated by comparison to a standard curve generated using KH2PO4. […]

As a reminder, the Km is the concentration of substrate that gives half-maximal velocity.

Take `Nc1ncnc2c1ncn2[C@@H]1O[C@H](COP(=O)(O)OP(=O)(O)OP(=O)(O)O)[C@@H](O)[C@H]1O` [ATP]: the Km was 46 µM and the “kcat (ATP hydrolysis)” value stood at 6.8 ± 0.11 s⁻¹.
